Assay [1] has as its target Genome polyprotein (dengue virus type 2, UniProt P29990). Description: Dengue-2 NS5 methyltransferase inhibitors, primary screen, biochemical, confirmation dose response (AID 588689). Format: functional.
In assay [2] the target is T1, Hepatocyte nuclear factor 4-alpha (Homo sapiens, UniProt P41235).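 Also: biochemical luminescence-based dose-response counterscreen measuring inhibition of HNF4 dimerization, run alongside a screen for blockers of ABHD5–perilipin-5 interaction; split luciferase complementation of HNF4 fusion proteins in cell lysate measuring dimerization.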
T1 sequence (P41235 whole entry): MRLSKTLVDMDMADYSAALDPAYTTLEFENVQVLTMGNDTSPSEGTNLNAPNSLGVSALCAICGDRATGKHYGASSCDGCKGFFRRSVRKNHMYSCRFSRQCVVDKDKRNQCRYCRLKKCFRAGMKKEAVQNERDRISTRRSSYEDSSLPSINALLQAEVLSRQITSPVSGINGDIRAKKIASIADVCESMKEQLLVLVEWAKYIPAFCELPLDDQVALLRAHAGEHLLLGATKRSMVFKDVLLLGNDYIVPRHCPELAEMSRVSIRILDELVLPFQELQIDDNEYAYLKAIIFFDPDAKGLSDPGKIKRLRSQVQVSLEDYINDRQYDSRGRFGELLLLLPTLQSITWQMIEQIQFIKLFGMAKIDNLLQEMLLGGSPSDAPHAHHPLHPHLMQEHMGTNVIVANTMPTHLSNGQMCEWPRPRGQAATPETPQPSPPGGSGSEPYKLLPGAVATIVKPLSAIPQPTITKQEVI
Format: functional, cell-based.

Assay [3] can be described thus: inhibitors of intracellular T. cruzi replication, confirmation, NIH3T3 host cells, beta-gal luminescence (AID 2044).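 Also: intracellular parasites grown in NIH/3T3 mouse fibroblasts as host cells; luminescent beta-galactosidase reporter signal from transgenic T. cruzi replicating inside host cells; inhibitors lower the luminescence signal.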 Type of assay: functional, cell-based.
The target of assay [4] is T2, Cysteine protease ATG4B (Homo sapiens, UniProt Q9Y4P1).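 Also: Fluorescence-based dose-response confirmation assay measuring inhibition of ATG4B activity.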
T2 sequence (Q9Y4P1 whole entry): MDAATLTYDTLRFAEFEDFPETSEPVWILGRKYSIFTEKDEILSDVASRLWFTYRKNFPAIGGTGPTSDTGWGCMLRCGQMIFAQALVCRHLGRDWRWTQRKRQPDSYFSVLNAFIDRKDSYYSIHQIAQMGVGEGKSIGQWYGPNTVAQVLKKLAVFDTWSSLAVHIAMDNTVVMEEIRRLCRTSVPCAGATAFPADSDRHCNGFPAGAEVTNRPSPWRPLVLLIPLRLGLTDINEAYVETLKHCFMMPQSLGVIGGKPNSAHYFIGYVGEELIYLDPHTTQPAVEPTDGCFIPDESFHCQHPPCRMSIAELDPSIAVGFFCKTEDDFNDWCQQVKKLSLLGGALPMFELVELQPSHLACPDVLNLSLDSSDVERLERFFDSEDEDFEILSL
Type of assay: functional.

Assay [5] concerns the target Phospholipase A2 (Homo sapiens, UniProt P04054). Type of assay: functional.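 Also: confirmatory dose-response counterscreen on phospholipase A2, testing hits that came from an ultra-high-throughput screen for ATG4B inhibitors.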
Assay [6] can be described thus: cytotoxicity toward NIH3T3 fibroblasts, dose response, counter-screen, cell-based, ATP luminescence, mouse fibroblasts (AID 2010).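 Also: cells exposed to compound for about 90 hours before reading.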 Type of assay: functional.
The target in assay [7] is T3, Sentrin-specific protease 7 (Homo sapiens, UniProt Q9BQF6).
T3 sequence (Q9BQF6 whole entry): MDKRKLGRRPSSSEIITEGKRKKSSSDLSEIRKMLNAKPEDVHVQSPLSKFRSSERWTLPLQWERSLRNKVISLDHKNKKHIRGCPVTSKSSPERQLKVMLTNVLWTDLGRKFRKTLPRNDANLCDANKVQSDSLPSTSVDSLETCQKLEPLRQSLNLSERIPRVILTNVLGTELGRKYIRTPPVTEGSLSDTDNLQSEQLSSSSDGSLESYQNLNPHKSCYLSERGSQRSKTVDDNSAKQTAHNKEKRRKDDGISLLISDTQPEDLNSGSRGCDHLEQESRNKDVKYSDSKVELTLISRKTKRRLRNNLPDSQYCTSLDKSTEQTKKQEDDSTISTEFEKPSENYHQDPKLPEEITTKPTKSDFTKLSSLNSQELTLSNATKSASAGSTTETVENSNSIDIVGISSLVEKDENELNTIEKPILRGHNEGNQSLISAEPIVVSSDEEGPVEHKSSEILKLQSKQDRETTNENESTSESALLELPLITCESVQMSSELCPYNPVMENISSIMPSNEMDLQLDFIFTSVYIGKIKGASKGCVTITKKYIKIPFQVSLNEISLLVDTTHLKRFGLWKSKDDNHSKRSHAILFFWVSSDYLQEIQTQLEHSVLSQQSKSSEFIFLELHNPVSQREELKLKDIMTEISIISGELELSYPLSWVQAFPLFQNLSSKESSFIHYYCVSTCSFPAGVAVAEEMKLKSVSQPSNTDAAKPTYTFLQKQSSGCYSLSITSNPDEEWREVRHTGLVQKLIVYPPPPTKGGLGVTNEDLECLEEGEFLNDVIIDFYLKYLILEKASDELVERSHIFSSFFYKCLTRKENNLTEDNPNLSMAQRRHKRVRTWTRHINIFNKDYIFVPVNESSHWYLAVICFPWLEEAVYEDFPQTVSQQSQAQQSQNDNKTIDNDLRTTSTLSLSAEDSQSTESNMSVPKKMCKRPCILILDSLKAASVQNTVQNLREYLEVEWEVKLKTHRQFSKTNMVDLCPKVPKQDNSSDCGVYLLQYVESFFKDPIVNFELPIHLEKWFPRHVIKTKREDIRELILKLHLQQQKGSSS
Description: SENP7 protease inhibitors, SAR follow-up, biochemical, luminescence (AID 504497). Type of assay: functional.

In assay [8] the target is T4, Sentrin-specific protease 6 (Homo sapiens, UniProt Q9GZR1).
T4 sequence (Q9GZR1 whole entry): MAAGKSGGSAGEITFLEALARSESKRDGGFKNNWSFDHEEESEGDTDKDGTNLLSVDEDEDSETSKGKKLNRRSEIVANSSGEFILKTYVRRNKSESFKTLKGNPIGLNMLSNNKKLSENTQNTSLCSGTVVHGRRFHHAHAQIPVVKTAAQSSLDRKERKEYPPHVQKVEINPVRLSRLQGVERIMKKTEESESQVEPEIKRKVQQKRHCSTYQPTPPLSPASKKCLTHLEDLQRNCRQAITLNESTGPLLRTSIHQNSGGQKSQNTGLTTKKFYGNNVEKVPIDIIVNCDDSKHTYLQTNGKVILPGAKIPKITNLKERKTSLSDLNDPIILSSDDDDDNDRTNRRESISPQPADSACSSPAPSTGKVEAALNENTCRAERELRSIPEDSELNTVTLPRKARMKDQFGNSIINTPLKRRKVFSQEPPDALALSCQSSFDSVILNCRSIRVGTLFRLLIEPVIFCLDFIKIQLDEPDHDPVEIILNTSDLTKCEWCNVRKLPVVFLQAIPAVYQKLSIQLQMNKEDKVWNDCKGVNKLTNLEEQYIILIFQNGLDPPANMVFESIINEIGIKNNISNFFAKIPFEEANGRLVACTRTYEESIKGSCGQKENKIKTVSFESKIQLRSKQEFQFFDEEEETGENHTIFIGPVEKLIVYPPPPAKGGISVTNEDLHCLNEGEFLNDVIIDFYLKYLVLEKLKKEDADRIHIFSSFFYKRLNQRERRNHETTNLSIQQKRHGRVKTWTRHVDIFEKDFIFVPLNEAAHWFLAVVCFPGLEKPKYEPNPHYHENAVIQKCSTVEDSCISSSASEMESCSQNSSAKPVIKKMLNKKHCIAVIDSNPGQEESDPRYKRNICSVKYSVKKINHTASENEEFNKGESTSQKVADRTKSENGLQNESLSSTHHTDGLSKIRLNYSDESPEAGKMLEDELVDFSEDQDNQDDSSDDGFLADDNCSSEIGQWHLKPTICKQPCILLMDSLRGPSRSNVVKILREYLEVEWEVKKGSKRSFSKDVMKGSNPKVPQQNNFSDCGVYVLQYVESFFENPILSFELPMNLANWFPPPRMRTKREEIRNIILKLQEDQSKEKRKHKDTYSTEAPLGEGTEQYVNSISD
Description: SAR Analysis of small molecule inhibitors of Sentrin-specific protease 6 (SENP6) using a Luminescent assay. [Related pubchem assays (depositor defined):AID2582, AID2599]. Format: functional.

Assay [9] deals with T5, Sentrin-specific protease 8 (Homo sapiens, UniProt Q96LD8).
T5 sequence (Q96LD8 whole entry): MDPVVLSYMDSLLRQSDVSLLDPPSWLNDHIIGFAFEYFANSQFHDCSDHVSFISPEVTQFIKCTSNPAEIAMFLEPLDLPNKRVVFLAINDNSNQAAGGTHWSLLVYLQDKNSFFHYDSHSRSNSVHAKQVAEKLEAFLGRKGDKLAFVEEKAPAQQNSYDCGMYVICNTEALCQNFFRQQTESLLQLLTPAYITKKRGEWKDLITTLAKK
Description: SENP8 protease inhibitors, SAR follow-up, biochemical, luminescence (AID 504501). Type of assay: functional.

In assay [10] the target is T6, Caspase-3 (Homo sapiens, UniProt P42574).
T6 sequence (P42574 whole entry): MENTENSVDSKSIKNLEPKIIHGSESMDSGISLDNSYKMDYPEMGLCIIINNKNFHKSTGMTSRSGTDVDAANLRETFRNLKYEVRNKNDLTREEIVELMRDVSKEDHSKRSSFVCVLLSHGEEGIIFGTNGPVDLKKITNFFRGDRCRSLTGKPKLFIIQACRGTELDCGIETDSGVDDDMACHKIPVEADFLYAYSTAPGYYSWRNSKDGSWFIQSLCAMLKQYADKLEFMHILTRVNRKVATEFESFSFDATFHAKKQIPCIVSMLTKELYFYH
Description: SAR Analysis of small molecule inhibitors of Sentrin-specific proteases (SENPs) using a Caspase-3 Selectivity assay. [Related pubchem assays (depositor defined):AID2540, AID2599, AID434973, AID489001]. Type of assay: functional.

Assay [11] has as its target Melanocortin receptor 4 (Homo sapiens, UniProt P32245). Type of assay: functional, cell-based.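 Also: Cell-based assay with luminescence read-out, confirmatory dose-response testing for agonist activity of biased ligands at MC4R; human U2OS cells with tagged receptor and beta-arrestin; potency of agonists that increase receptor coupling to beta-arrestin.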
For assay [12], the system named is Streptococcus. Description: Group A Streptococcus viability loss, dose response, counter-screen for streptokinase expression inhibitor project, luminescence, BacTiterGlo (AID 1915).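 Also: potency for reduction of bacterial viability or growth.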 Type of assay: functional, organism-based. For orientation: A counterscreen serves to expose hits that act by an unwanted route or on another target.
Assay [13] concerns Streptococcus sp. 'group A'. Description: growth inhibition of control SK(-) GAS strain, dose response, counter-screen for streptokinase expression inhibitor project, luminescence, kanamycin, BacTiterGlo, confirmation (AID 1900). Type of assay: functional, organism-based.
Assay [14] addresses T7, Streptokinase A (Streptococcus pyogenes serotype M1, UniProt P10520).
T7 sequence (P10520 whole entry): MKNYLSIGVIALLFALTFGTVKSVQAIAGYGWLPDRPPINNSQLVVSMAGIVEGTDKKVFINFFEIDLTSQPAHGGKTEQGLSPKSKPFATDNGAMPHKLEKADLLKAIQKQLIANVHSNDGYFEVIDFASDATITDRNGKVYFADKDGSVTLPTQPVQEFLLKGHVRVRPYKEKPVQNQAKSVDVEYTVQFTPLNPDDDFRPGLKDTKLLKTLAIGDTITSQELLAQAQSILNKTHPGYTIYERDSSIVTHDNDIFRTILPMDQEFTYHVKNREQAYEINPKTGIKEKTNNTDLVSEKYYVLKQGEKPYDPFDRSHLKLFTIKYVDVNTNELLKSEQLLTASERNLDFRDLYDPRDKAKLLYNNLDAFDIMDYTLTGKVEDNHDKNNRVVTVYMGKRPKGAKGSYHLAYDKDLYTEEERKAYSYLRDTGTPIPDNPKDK
Description: S. pyogenes streptokinase expression inhibitors, potency, dose response, plasminogen activation absorbance, OD405 (AID 1914).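 Also: secreted streptokinase activity via plasminogen activation per viability signal from cell pellet.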 Type of assay: functional, Streptococcus pyogenes M1 GAS.

Results on twelve compounds are retold here after ChEMBL document CHEMBL1201862, “PubChem BioAssay data set” (2004).

Molecules are shown by their SMILES. Counter-ions that a name gives are not always drawn. Activity calls are given as the source filed them. Some results are limits rather than exact numbers.

Usually IC50 stands for the concentration needed to halve the response being measured. The EC50 is the midpoint of the concentration-response curve.

Sequence of Melanocortin receptor 4 (P32245 whole entry): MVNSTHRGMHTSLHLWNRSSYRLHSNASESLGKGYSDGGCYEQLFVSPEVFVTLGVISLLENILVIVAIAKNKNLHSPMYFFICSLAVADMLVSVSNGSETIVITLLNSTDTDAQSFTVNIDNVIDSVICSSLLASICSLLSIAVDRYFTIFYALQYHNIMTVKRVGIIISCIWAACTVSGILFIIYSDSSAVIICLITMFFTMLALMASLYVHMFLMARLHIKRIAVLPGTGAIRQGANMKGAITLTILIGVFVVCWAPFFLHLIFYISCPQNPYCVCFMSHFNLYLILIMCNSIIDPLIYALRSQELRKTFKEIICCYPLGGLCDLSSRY
Sequence of Phospholipase A2 (P04054 whole entry): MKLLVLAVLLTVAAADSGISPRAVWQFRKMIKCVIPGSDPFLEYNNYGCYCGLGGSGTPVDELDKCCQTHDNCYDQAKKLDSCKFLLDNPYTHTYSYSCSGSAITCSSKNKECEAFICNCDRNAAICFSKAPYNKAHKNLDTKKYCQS
Sequence of Genome polyprotein (P29990 2492-3391 limits assumed): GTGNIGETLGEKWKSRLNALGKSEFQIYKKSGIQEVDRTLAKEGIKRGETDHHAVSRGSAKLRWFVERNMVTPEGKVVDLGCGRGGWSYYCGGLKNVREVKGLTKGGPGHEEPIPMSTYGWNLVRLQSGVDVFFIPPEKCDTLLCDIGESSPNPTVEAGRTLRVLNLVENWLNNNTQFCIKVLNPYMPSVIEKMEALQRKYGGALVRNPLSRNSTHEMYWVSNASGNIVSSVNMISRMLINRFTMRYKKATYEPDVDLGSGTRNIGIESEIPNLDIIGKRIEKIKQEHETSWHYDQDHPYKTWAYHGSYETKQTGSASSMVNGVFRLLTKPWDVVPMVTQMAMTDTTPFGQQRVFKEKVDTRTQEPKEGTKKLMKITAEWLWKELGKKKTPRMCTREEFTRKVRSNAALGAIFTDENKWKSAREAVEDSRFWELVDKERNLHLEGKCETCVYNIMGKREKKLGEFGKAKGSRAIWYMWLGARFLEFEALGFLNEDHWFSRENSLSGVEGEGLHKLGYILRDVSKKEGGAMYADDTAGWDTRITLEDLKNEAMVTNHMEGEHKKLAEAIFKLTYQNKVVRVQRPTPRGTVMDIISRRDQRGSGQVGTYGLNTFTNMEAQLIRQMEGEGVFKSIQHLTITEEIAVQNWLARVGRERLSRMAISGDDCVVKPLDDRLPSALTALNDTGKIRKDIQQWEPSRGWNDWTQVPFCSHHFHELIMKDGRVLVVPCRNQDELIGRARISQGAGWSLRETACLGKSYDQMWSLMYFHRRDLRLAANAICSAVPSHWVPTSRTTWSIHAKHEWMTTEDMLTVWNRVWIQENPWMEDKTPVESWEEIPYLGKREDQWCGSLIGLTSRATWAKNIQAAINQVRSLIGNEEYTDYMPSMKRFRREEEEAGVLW

For the compound `O=C1NC(=O)N(c2ccccc2F)C(=O)/C1=C/c1ccc(Oc2ccc([N+](=O)[O-])cn2)cc1`, the IC50 is 56.1 µM (active) in [1] and 1.88 µM (active) in assay [2].

On to `O=S(=O)(c1ccc(F)cc1)c1nc(-c2ccccc2F)oc1N1CCCCC1`, for which the EC50 in [3] was 1.87 µM (active); in [6], > 30 µM (not active). Besides, the values for the IC50 in assay [4] and in [5] were 19.1 µM (active) and 12.3 µM (active), respectively.

Take `Cc1ccc2nc(NC(=O)c3cc(=O)c4cc(C)c(C)cc4o3)sc2c1`: the IC50 in assay [7], in [8], in [9] and in assay [10] was > 99 µM (inactive) in each case.

`Cc1ccc(NC(=O)c2ncn(CCCN3CCN(Cc4cccc5ccccc45)CC3)n2)cc1C`: in assay [11], the EC50 was > 89.2 µM (inactive).

In the case of `CC(C)c1ccc(NC2CCCN(C(=O)c3cnn(C(C)C)c3)C2)cc1` (centres undefined), the IC50 was 9.04 µM (active) in assay [4] and 6.21 µM (active) in [5].

Turning to `CC(C)CC(=O)Nc1ccc(-c2nc3cc(Cl)ccc3s2)cc1`, the IC50 in assay [7] was 82.7 µM (active); in assay [8], > 99 µM (inactive); in assay [9] it was > 99 µM (inactive); in assay [10], > 99 µM (inactive).

With `Cc1cccnc1C(NC(=O)C1CCN(CCOc2ccc(Cl)cc2Cl)CC1)c1ccc(Cl)cc1` (centres undefined), the EC50 in [11] is > 89.2 µM (inactive).

For `NC(Cc1ccc(C(F)(F)F)cc1)c1csc(Nc2nccc(C(F)(F)F)n2)n1` (centres undefined), the EC50 in assay [11] was > 89.2 µM (inactive).

Consider `Fc1cc(F)cc(-c2noc(/C=C/c3ccccc3Cl)n2)c1`, for which the IC50 in [7], in assay [8], in assay [9] and in [10] was > 99 µM (inactive) each time.

Consider `O=C(NC1CCCCC1)C(c1ccccc1F)n1c(=O)c(-c2ccco2)nc2ccccc21` (centres undefined), for which the IC50 in assay [2] is 1.84 µM (active).

`Nc1ccc(-c2noc(/C=C/c3ccccc3)n2)cc1[N+](=O)[O-]`: the IC50 in [7], in assay [8], in assay [9] and in assay [10] was > 99 µM (inactive) in each case.

As to `CN(C)CCOc1ccc(/C(=C(/CCCl)c2ccccc2)c2ccccc2)cc1` [TOREMIFENE CITRATE], the EC50 is 8.17 µM (active) in [12]; 5.82 µM (active) in assay [13]; 28.4 µM (active) in assay [3]; > 60 µM (not active) in assay [6]; 25.9 µM (active) in assay [14]. Besides, the IC50 in [2] was 7.87 µM (active).
